According to patent US10154991B2, “Anesthetic compounds and related methods of use” (priority 2012, dated 2018):
Like-named read-outs stand apart in the source and are kept apart here.

Assays:
[1] = test system: Sprague-Dawley rats; test: In vivo sedative/hypnotic testing, IV bolus, rats; set-up: species or system rat; conditions: for Rat response: IV bolus, doses as in the cell; for ED50: Rattus norvegicus, sedation/hypnosis, IV
Procedure: (§1) Animals were housed in a dedicated room at the vivarium of VivoPath Inc., located at Redstone Center, 55 Union Street, Worcester, Mass. Housing and care was as specified in the USDA Animal Welfare Act (9 CFR, Parts 1, 2, and 3) and as described in the Guide for the Care and Use of Laboratory Animals from the National Research Council. Environmental conditions of housing rooms are set at the following ranges: temperature: 70±7° F. (22±4° C.), humidity: 50±20%, light cycle: 12-hour light/12-hour dark cycle—lights on at 7 am and off at 7 pm., air changes: ten or more air changes per hour with 100% fresh air. The animals' body weights were measured prior to the first dose on each experimental day.
Adult male Sprague-Dawley rats (225-300 g) were purchased from Harlan (South Easton, Mass.).
(§2) Drugs were prepared in either dimethylsulfoxide/saline or saline vehicle or hydroxypropyl-β-cyclodextrin (20% in water, pH 7.0) solution and were administered as an intravenous bolus injection. Animals received 1-4 doses of drug(s) during an experimental day, either ascending doses or different drugs. Doses were administered at intervals equal to the longer of 1 h or 10-times the duration of apparent sedative/hypnotic effects from the previous dose. The sedative/hypnotic properties of the drugs were evaluated by observation of the rats, ranging from mild excitation, mild sedation apparent due to reduced activity, and moderate sedation to hypnosis reflected by loss of righting reflex (LORR, the ability to place rear and hind legs under the body, as well as attenuation/loss of nociceptive reflexes).

[2] = test system: rats; test: loss of righting reflexes (LORR) assay after IV bolus; conditions: for ED50: Rattus norvegicus, iv, read-out: ED50 ± SD; for hypnotic potency compared with methoxycarbonyl etomidate and etomidate / in vivo duration of action compared with methoxycarbonyl etomidate and etomidate: rat, in vivo; for death of a rat after dosing: one rat, 20 mg/kg dose; for R/S ED50 ratio: ED50 for LORR of R form over S form
Procedure: Adult male Sprague-Dawley rats (230-350 gm) were purchased from Charles River Laboratories (Wilmington, Mass.) and housed in the Massachusetts General Hospital Center for Comparative Medicine animal care facility. All drugs were administered through a femoral venous catheter pre-implanted by the vendor prior to animal delivery to our animal care facility.
Immediately after injection, rats were turned supine. […] A stopwatch was used to measure the duration of LORR, which was defined as the time from drug injection until the animal spontaneously righted itself.

[3] = In vitro metabolic half-life of hypnotics in rat blood; type: in vitro ADME; conditions: for half-life at 100 μM: Sprague-Dawley, rat; for half-life at 100 μM / metabolic half-life of S form compared with R form: rat blood
Procedure: On the day of study, whole blood was drawn from the femoral venous catheters of 3 Sprague-Dawley rats (1-2 ml/rat), immediately anticoagulated with heparin (38 U), pooled, and stored on ice. A 1 ml aliquot of blood was warmed at 37° C. for 5 minutes and hypnotic (from a 40 mM in dimethyl sulfoxide stock solution) was added to a final concentration of 100 μM. After the desired incubation time, a 150 μl sample was removed and the metabolic reaction was quenched with 150 μl acetonitrile (Sigma-Aldrich, St. Louis, Mo.). Zero time point samples were prepared by adding 150 μl acetonitrile to blood prior to adding hypnotic (from a 4 mM in dimethyl sulfoxide stock solution). The quenched samples were centrifuged and the resultant supernatant separated and stored at −20° C. until analyzed. Hypnotic concentrations in thawed samples were determined by high performance liquid chromatography using a Varian Prostar system with a 4.6×250 mm Proto 300 C18 column (Nest Group, Southborough, Mass.) with the UV detector set at 240 nm.

[4] = Octanol:water partition coefficients; type: physicochemical; conditions: 10 mM Tris pH 7.4; read-out: Octanol/Water Partition Coefficient ± SD (converted)
Procedure: One mg of each hypnotic was added to 10 ml of water buffered with 10 mM Tris (pH 7.4) and 0.5 ml or 1 ml of octanol. The mixture was stirred overnight and then centrifuged to more fully separate the organic and aqueous phases. The relative hypnotic concentrations in each phase (i.e. the partition coefficient) were determined by high performance liquid chromatography as described for blood.

[5] = test system: ICR mice; test: In vivo sedative/hypnotic testing, IV bolus, mice; set-up: species or system mouse; conditions: for Mouse response: IV bolus, doses as in the cell; for ED50: Mus musculus, sedation/hypnosis, IV
Procedure: as §1
Adult ICR mice (20-30 g) were purchased from Harlan (South Easton, Mass.). Drugs were administered as intravenous bolus injection in a tail vein.
as §2

[6] = test system: beagle dogs; conditions: dog, in vivo
Procedure: A pilot study was conducted in dogs to assess anesthesia induced by cyclopropyl-MOC-metomidate continuous infusion without a bolus induction dosing. Two dogs received cyclopropyl-MOC-metomidate as a 1 mg/kg/min IV infusion without prior bolus administration.
Anesthesia induction was determined using the methods described above.
Etomidate was administered to dogs at IV bolus doses ranging from 0.25 to 2 mg/kg. Anesthesia in the dogs was measured as described above. […] The bolus dose of 2 mg/kg was adopted to induce anesthesia prior to subsequent continuous infusions.
Propofol was administered to dogs as an IV bolus dose of 5 mg/kg to induce anesthesia followed by a continuous infusion at 0.4 mg/kg/min.

[7] = pooled heparinised whole blood, 37° C., 100 μM, read-out: Blood Half-Life (95% CI)
[8] = pooled heparinised whole blood, bound based on the lower limit of quantification, read-out: metabolic half-life in rat blood (converted)

COC(=O)C1(OC(=O)c2cncn2[C@H](C)c2ccccc2)CCN(C)CC1
Rat response [1]: No effect apparent at 4, 8 & 16 mg/kg

COC(=O)[C@H](C)COC(=O)c1cncn1[C@H](C)c1ccccc1 [α-(R)- methyl- methoxycarbonyl etomidate, α-R-methyl-methoxycarbonyl etomidate]
ED50 [2]: 5.2 ± 0.5 mg/kg
half-life at 100 μM [3, 7]: 11.4 s
logD [4]: 2.83

COC(=O)[C@@H](C)COC(=O)c1cncn1[C@H](C)c1ccccc1 [α-(S)- methyl- methoxycarbonyl etomidate, α-S-methyl-methoxycarbonyl etomidate]
ED50 [2]: 3.1 ± 0.4 mg/kg
half-life at 100 μM [3, 7]: 45.6 s
metabolic half-life of S form compared with R form [3]: at least four-fold longer
logD [4]: 2.72

COC(=O)C1(OC(=O)c2cncn2[C@H](C)c2ccccc2)CCC1 [Cyclobutyl-MOC-metomidate, cyclobutyl-methoxycarbonyl metomidate]
hypnotic potency compared with methoxycarbonyl etomidate and etomidate [2]: nearly an order of magnitude higher than that of methoxycarbonyl etomidate and similar to that of etomidate
in vivo duration of action compared with methoxycarbonyl etomidate and etomidate [2]: intermediate between those of methoxycarbonyl etomidate and etomidate
Mouse response [5]: Sedation/hypnosis induced at 2, 4 & 8 mg/kg IV
ED50 [5]: 1 to 2 mg/kg
slope of duration of LORR vs logarithm of dose ([5]; mice): approximately 7
Rat response [1]: Sedation/hypnosis induced at 1, 2, 4 & 8 mg/kg IV
ED50 [1]: ~1 mg/kg
slope of duration of LORR vs logarithm of dose ([1]; rats): ~5

CC(C)c1cccc(C(C)C)c1O [Propofol]
emergence from anesthesia after the end of infusion [6]: approximately 15 minutes
recovery of normal behavior after infusion [6]: ≥ 30 min
recovery time relative to cyclopropyl-MOC-metomidate infusion of the same duration [6]: approximately 3 fold

COC(=O)C1(OC(=O)c2cncn2[C@H](C)c2ccccc2)CCOCC1
Rat response [1]: Mildly sedative at 16 mg/kg More profound short-acting sedation at 32 mg/kg

COC(=O)C(C)(C)OC(=O)c1cncn1[C@H](C)c1ccccc1 [Dimethyl- methoxycarbonyl metomidate, dimethyl-methoxycarbonyl metomidate]
lethal dose relative to ED50 for LORR ([2]; 20 mg/kg dose vs ED50): 28 fold
ED50 [2]: 0.72 ± 0.16 mg/kg
death of a rat after dosing [2]: died
hypnotic potency compared with methoxycarbonyl etomidate and etomidate [2]: nearly an order of magnitude higher than that of methoxycarbonyl etomidate and similar to that of etomidate
in vivo duration of action compared with methoxycarbonyl etomidate and etomidate [2]: intermediate between those of methoxycarbonyl etomidate and etomidate
in vitro metabolic half-life compared with methoxycarbonyl etomidate and etomidate [3]: intermediate between those of methoxycarbonyl etomidate and etomidate
half-life at 100 μM ([3]; 37° C., 100 μM, read-out: Blood Half-Life (95% CI)): 522 s
logD [4]: 2.82

COC(=O)[C@H](C)OC(=O)c1cncn1[C@H](C)c1ccccc1 [(S)-methyl- methoxycarbonyl metomidate, S-methyl-methoxycarbonyl metomidate]
ED50 [2]: 3.5 ± 0.4 mg/kg
half-life at 100 μM [3, 7]: 8.4 s
metabolic half-life of S form compared with R form [3]: at least four-fold longer
logD [4]: 2.52

COC(=O)C(C)(C)COC(=O)c1cncn1[C@H](C)c1ccccc1 [α-dimethyl- methoxycarbonyl etomidate, α-dimethyl-MOC-etomidate]
ED50 [2]: 2.4 ± 1 mg/kg
half-life at 100 μM [3, 7]: 156 s
logD [4]: 3.35

COC(=O)C[C@H](C)OC(=O)c1cncn1[C@H](C)c1ccccc1 [β-(S)- methyl- methoxycarbonyl etomidate, β-S-methyl-MOC-etomidate]
ED50 [2]: 2.9 ± 0.3 mg/kg
half-life at 100 μM [3, 7]: 43.2 s
logD [4]: 2.68

α-methyl-methoxycarbonyl etomidate
R/S ED50 ratio [2]: 1.7

COC(=O)C1(OC(=O)c2cncn2[C@H](C)c2ccccc2)CCNCC1
Rat response [1]: No effect apparent at 4, 8 & 16 mg/kg

COC(=O)[C@@H](OC(=O)c1cncn1[C@H](C)c1ccccc1)C(C)C [R-isopropyl-methoxycarbonyl metomidate]
ED50 [2]: 3.6 ± 0.8 mg/kg
death of a rat after dosing [2]: died after receiving a 20 mg/kg dose
half-life at 100 μM [3, 7]: 9 s
logD [4]: 3.58

COC(=O)C1(OC(=O)c2cncn2[C@H](C)c2ccccc2)CC1 [drawing 83]
Mouse response [5]: Sedation/hypnosis induced at 2 & 4 mg/kg IV
ED50 [5]: ~0.7 mg/kg
Rat response [1]: Sedation/hypnosis induced at 2 & 4 mg/kg IV
ED50 [1]: ~0.7 mg/kg

methyl-methoxycarbonyl metomidate
R/S ED50 ratio [2]: 2.7

COC(=O)C(OC(=O)c1cncn1C(C)c1ccccc1)C(C)C (stereo not shown) [isopropyl-methoxycarbonyl metomidate]
R/S ED50 ratio [2]: 3.0

COC(=O)COC(=O)c1cncn1[C@H](C)c1ccccc1 [Methoxycarbonyl metomidate, methoxycarbonyl metomidate]
ED50 [2]: 11.1 ± 0.8 mg/kg
half-life at 100 μM [3, 7]: < 1.8 s
half-life at 100 μM [3, 8]: < 2 s
logD [4]: 2.2

COC(=O)C(OC(=O)c1cncn1[C@H](C)c1ccccc1)C1CC1 (stereo partly shown)
Mouse response [5]: Sedation/hypnosis induced at 8, 16 & 32 mg/kg IV
ED50 [5]: ~8 mg/kg

C[C@H](c1ccccc1)n1cncc1C(=O)OC1(C(=O)OC2COC2)CC1
Mouse response [5]: No effect at 4 mg/kg IV

CCOC(=O)c1cncn1[C@H](C)c1ccccc1 [drawing 81]
Mouse response [5]: Sedation/hypnosis induced at 2 & 4 mg/kg IV
ED50 [5]: ~0.7 mg/kg
Rat response [1]: Sedation/hypnosis induced at 2 & 4 mg/kg IV
ED50 [1]: ~0.7 mg/kg

COC(=O)[C@@H](C)OC(=O)c1cncn1[C@H](C)c1ccccc1 [(R)-methyl- methoxycarbonyl metomidate, R-methyl-methoxycarbonyl metomidate]
ED50 [2]: 9.6 ± 1.9 mg/kg
half-life at 100 μM [3, 7]: < 1.8 s
half-life at 100 μM [3, 8]: < 2 s
logD [4]: 2.58

COC(=O)C1(OC(=O)c2cncn2[C@H](C)c2ccccc2)CCCCC1
Rat response [1]: Mildly sedative at 4 mg/kg Hypnotic at 8 mg/kg - deep and long-acting

COC(=O)[C@H](OC(=O)c1cncn1[C@H](C)c1ccccc1)C(C)C [S-isopropyl-methoxycarbonyl metomidate]
ED50 [2]: 1.2 ± 0.19 mg/kg
Slope of Duration vs. Log Dose ± SD ([2]; duration of LORR vs log dose, rats): 12.1±1.1 min/(log mg/kg)
half-life at 100 μM [3, 7]: 930 s
metabolic half-life of S form compared with R form [3]: two orders of magnitude longer
logD [4]: 3.46

COC(=O)CC(C)(C)OC(=O)c1cncn1[C@H](C)c1ccccc1 [β-dimethyl- methoxycarbonyl etomidate, β-dimethyl-MOC-etomidate]
ED50 [2]: 1.9 ± 0.3 mg/kg
half-life at 100 μM [3, 7]: 1400 s
logD [4]: 3.2

COC(=O)c1ccccc1OC(=O)c1cncn1[C@H](C)c1ccccc1
Mouse response [5]: Mild excitation but no sedation at 2, 4 or 8 mg/kg IV

β-methyl-methoxycarbonyl etomidate
R/S ED50 ratio [2]: 1.2

cyclopentyl-methoxycarbonyl metomidate
hypnotic potency compared with methoxycarbonyl etomidate and etomidate [2]: nearly an order of magnitude higher than that of methoxycarbonyl etomidate and similar to that of etomidate
in vivo duration of action compared with methoxycarbonyl etomidate and etomidate [2]: intermediate between those of methoxycarbonyl etomidate and etomidate

COC(=O)C1(OC(=O)c2cncn2[C@H](C)c2ccccc2)CCCC1
Rat response [1]: Sedative at 1 & 2 mg/kg, with rear paws out but head and forepaws mobile Hypnotic at 4 & 8 mg/kg, quite long-acting
